Experimental findings from patent US9546152B2 (MERCK SHARP & DOHME CORP., priority 2012, dated 2017) are described below.

Experiment [1] deals with T1, human orexin-2 receptor (Homo sapiens (Human), UniProt O43614). Put plainly: radioligand binding assay, orexin-2 receptor. As to conditions: membranes prepared from CHO cells expressing the OX2 receptor; read-out: hOX2R BIND hKi. On the procedure: (§1) In a typical experiment the OX1 and OX2 receptor antagonistic activity of the compounds of the present invention was determined in accordance with the following experimental method. For intracellular calcium measurements, Chinese hamster ovary (CHO) cells expressing the rat orexin-1 receptor or the human orexin-2 receptor, are grown in Iscove's modified DMEM containing 2 mM L-glutamine, […], 1% hypoxanthine-thymidine supplement, 100 U/ml penicillin, 100 μg/ml streptomycin and 10% heat-inactivated fetal calf serum (FCS). The cells are seeded at 20,000 cells/well into Becton-Dickinson black 384-well clear bottom sterile plates coated with poly-D-lysine. All reagents were from GIBCO-Invitrogen Corp. The seeded plates are incubated overnight at 37° C. and 5% CO2. Ala-6,12 human orexin-A as the agonist is prepared as a 1 mM stock solution in 1% bovine serum albumin (BSA) and diluted in assay buffer (HBSS containing 20 mM HEPES, 0.1% BSA and 2.5 mM probenecid, pH7.4) for use in the assay at a final concentration of 70 pM. Test compounds are prepared as 10 mM stock solution in DMSO, then diluted in 384-well plates, first in DMSO, then assay buffer. On the day of the assay, cells are washed 3 times with 100 μl assay buffer and then incubated for 60 min (37° C., 5% CO2) in 60 μl assay buffer containing 1 μM Fluo-4AM ester, 0.02% pluronic acid, and 1% BSA. The dye loading solution is then aspirated and cells are washed 3 times with 100 μl assay buffer. 30 μl of that same buffer is left in each well. Within the Fluorescent Imaging Plate Reader (FLIPR, Molecular Devices), test compounds are added to the plate in a volume of 25 μl, incubated for 5 min and finally 25 μl of agonist is added. Fluorescence is measured for each well at 1 second intervals for 5 minutes and the height of each fluorescence peak is compared to the height of the fluorescence peak induced by 70 pM Ala-6,12 orexin-A with buffer in place of antagonist. […] Alternatively, compound potency can be assessed by a radioligand binding assay (described in Bergman et. al. Bioorg. Med. Chem. Lett. 2008, 18, 1425-1430) in which the inhibition constant (Ki) is determined in membranes prepared from CHO cells expressing either the OX1 or OX2 receptor. The intrinsic orexin receptor antagonist activity of a compound which may be used in the present invention may be determined by these assays.

Experiment [2] concerns the target T1, human orexin-2 receptor. The experiment can be described thus: FLIPR Ca2+ Flux Assay, orexin-2 receptor. The class given is cell-based. The following applies: CHO cells expressing the human orexin-2 receptor; agonist 70 pM Ala-6,12 human orexin-A; read-out: hOX2R FLIPR IC50. The protocol:
as §1
A general note: Calcium flux is commonly read through the fluorescence of an indicator in the cells.

T1 sequence (O43614 whole entry): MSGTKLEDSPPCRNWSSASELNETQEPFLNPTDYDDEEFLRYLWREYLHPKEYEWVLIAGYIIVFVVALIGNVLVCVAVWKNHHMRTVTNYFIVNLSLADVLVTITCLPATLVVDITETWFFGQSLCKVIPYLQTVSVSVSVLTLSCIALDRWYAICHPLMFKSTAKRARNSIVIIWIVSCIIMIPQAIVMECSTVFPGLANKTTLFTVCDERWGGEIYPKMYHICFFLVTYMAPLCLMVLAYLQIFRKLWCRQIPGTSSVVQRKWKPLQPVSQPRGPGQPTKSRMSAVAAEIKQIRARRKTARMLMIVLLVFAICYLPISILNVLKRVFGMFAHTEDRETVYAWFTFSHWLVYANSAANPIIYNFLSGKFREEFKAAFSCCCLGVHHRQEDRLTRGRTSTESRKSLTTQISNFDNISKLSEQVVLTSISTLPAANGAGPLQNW

Turning to `Cc1c(C#N)ccnc1O[C@@H]1CC[C@@H](C)N(C(=O)c2ccccc2-c2nccs2)C1` [Example 44, 3-methyl-2-{[(3R,6R)-6-methyl-1-{[2-(1,3-thiazol-2-yl)phenyl]carbonyl}piperidin-3-yl]oxy}pyridine-4-carbonitrile], in experiment [1], the Ki stood at 0.1 nM. For the same molecule, the IC50 (as a rule, the concentration at which inhibition is half-maximal) in experiment [2] came to 8 nM.
For `Cc1c(C#N)ccnc1O[C@@H]1CC[C@@H](C)N(C(=O)c2c(F)cccc2-c2nccs2)C1` [Example 18, 2-{[(3R,6R)-1-{[2-fluoro-6-(1,3-thiazol-2-yl)phenyl]carbonyl}-6-methylpiperidin-3-yl]oxy}-3-methylpyridine-4-carbonitrile], in that order: 0.1 nM and 7 nM.
The corresponding values for `Cc1c(C#N)ccnc1O[C@@H]1CC[C@@H](C)N(C(=O)c2ccncc2-c2ccccc2)C1` [Example 23, 3-methyl-2-({(3R,6R)-6-methyl-1-[(3-phenylpyridin-4-yl)carbonyl]piperidin-3-yl}oxy)pyridine-4-carbonitrile] are 16.6 nM and 69 nM.
For `COc1ccc(C(=O)N2C[C@H](Oc3nccc(C#N)c3C)CC[C@H]2C)c(-c2ccncc2)n1` [Example 48, 2-({(3R,6R)-1-[(6-methoxy-2,4′-bipyridin-3-yl)carbonyl]-6-methylpiperidin-3-yl}oxy)-3-methylpyridine-4-carbonitrile], in that order: 8.9 nM and 65 nM.
Regarding `Cc1c(C#N)ccnc1O[C@@H]1CC[C@@H](C)N(C(=O)c2ccccc2OC(F)(F)F)C1` [Example 62, 3-methyl-2-{[(3R,6R)-6-methyl-1-{[2-(trifluoromethoxy)phenyl]carbonyl}piperidin-3-yl]oxy}pyridine-4-carbonitrile], the Ki in experiment [1] worked out at 0.8 nM. In addition, the IC50 in experiment [2] amounted to 16 nM.
For `CSc1ccc(C(=O)N2C[C@H](Oc3nccc(C#N)c3C)CC[C@H]2C)c(-n2nccn2)n1` [Example 86, 3-methyl-2-{[(3R,6R)-6-methyl-1-{[6-(methylsulfanyl)-2-(2H-1,2,3-triazol-2-yl)pyridin-3-yl]carbonyl}-piperidin-3-yl]oxy}pyridine-4-carbonitrile], the Ki in experiment [1] was 5.1 nM. For the same molecule, the IC50 in experiment [2] was determined as 126 nM.
For `Cc1c(C#N)ccnc1O[C@@H]1CC[C@@H](C)N(C(=O)c2cccc(F)c2-n2nccn2)C1` [Example 12, 2-{[(3R,6R)-1-{[3-fluoro-2-(2H-1,2,3-triazol-2-yl)phenyl]carbonyl}-6-methylpiperidin-3-yl]oxy}-3-methylpyridine-4-carbonitrile], in that order: 1 nM and 12 nM.
For `Cc1c(C#N)ccnc1O[C@@H]1CC[C@@H](C)N(C(=O)c2nscc2-n2nccn2)C1` [Example 55, 3-methyl-2-{[(3R,6R)-6-methyl-1-{[4-(2H-1,2,3-triazol-2-yl)isothiazol-3-yl]carbonyl}piperidin-3-yl]oxy}pyridine-4-carbonitrile], in that order: 7.4 nM and 81 nM.
For `COc1c(C#N)ccnc1O[C@@H]1CC[C@@H](C)N(C(=O)c2ccc(F)cc2-n2nccn2)C1` [Example 98, 2-{[(3R,6R)-1-{[4-fluoro-2-(2H-1,2,3-triazol-2-yl)phenyl]carbonyl}-6-methylpiperidin-3-yl]oxy}-3-methoxypyridine-4-carbonitrile], in that order: 0.3 nM and 19 nM.
In the case of `Cc1c(C#N)ccnc1O[C@@H]1CC[C@@H](C)N(C(=O)c2ccccc2OC(C)C)C1` [Example 21, 3-methyl-2-{[(3R,6R)-6-methyl-1-{[2-(1-methylethoxy)phenyl]carbonyl}piperidin-3-yl]oxy}pyridine-4-carbonitrile], the Ki in experiment [1] came to 0.6 nM. Besides, in experiment [2], the IC50 was 8 nM.
Turning to `Cc1c(C#N)ccnc1O[C@@H]1CC[C@@H](C)N(C(=O)c2ccccc2-c2cscn2)C1` [Example 33, 3-methyl-2-{[(3R,6R)-6-methyl-1-{[2-(1,3-thiazol-4-yl)phenyl]carbonyl}piperidin-3-yl]oxy}pyridine-4-carbonitrile], the Ki in experiment [1] was 0.2 nM. In experiment [2], the concentration for half-maximal inhibition (IC50) came out at 6 nM.
Turning to `Cc1c(C#N)ccnc1O[C@@H]1CC[C@@H](C)N(C(=O)c2sncc2-c2ccccc2)C1` [Example 20, 3-methyl-2-({(3R,6R)-6-methyl-1-[(4-phenylisothiazol-5-yl)carbonyl]piperidin-3-yl}oxy)pyridine-4-carbonitrile], the Ki in experiment [1] was 15.2 nM. The IC50 in experiment [2] is 89 nM.
Take `COc1ccc(C(=O)N2C[C@H](Oc3nccc(C#N)c3C)CC[C@H]2C)c(OC)n1` [Example 73, 2-({(3R,6R)-1-[(2,6-dimethoxypyridin-3-yl)carbonyl]-6-methylpiperidin-3-yl}oxy)-3-methylpyridine-4-carbonitrile]: the Ki in experiment [1] was 32.7 nM.
For `CCc1c(C#N)ccnc1O[C@@H]1CC[C@@H](C)N(C(=O)c2ccccc2-n2nccn2)C1` [Example 93, 3-ethyl-2-{[(3R,6R)-6-methyl-1-{[2-(2H-1,2,3-triazol-2-yl)phenyl]carbonyl}piperidin-3-yl]oxy}pyridine-4-carbonitrile], the Ki in experiment [1] was found to be 0.1 nM. Moreover, the IC50 in experiment [2] came to 8 nM.
The corresponding values for `COc1ccc(C(=O)N2C[C@H](Oc3nccc(C#N)c3C)CC[C@H]2C)c(-n2nccn2)c1` [Example 7, 2-{[(3R,6R)-1-{[4-methoxy-2-(2H-1,2,3-triazol-2-yl)phenyl]carbonyl}-6-methylpiperidin-3-yl]oxy}-3-methylpyridine-4-carbonitrile] are 1.3 nM and 13 nM.
As for `Cc1c(C#N)ccnc1O[C@@H]1CC[C@@H](C)N(C(=O)c2ccccc2-c2ncco2)C1` [Example 27, 3-methyl-2-{[(3R,6R)-6-methyl-1-{[2-(1,3-oxazol-2-yl)phenyl]carbonyl}piperidin-3-yl]oxy}pyridine-4-carbonitrile], in experiment [1], the Ki was 0.3 nM. In experiment [2], the IC50 was 17 nM.
`COc1ccc(C(=O)N2C[C@H](Oc3nccc(C#N)c3C)CC[C@H]2C)c(C2CC2)n1` [Example 5, 2-({(3R,6R)-1-[(2-cyclopropyl-6-methoxypyridin-3-yl)carbonyl]-6-methylpiperidin-3-yl}oxy)-3-methylpyridine-4-carbonitrile]: in experiment [1], the Ki was determined as 1.7 nM. For the same molecule, the IC50 in experiment [2] was determined as 32 nM.
For `Cc1c(C#N)ccnc1O[C@@H]1CC[C@@H](C)N(C(=O)c2cc(F)ccc2-n2nccn2)C1` [Example 69, 2-{[(3R,6R)-1-{[5-fluoro-2-(2H-1,2,3-triazol-2-yl)phenyl]carbonyl}-6-methylpiperidin-3-yl]oxy}-3-methylpyridine-4-carbonitrile], in that order: 0.6 nM and 11 nM.
For `Cc1c(C#N)ccnc1O[C@@H]1CC[C@@H](C)N(C(=O)C2=C(c3ccccn3)CCC2)C1` [Example 63, 3-methyl-2-({(3R,6R)-6-methyl-1-[(2-pyridin-2-ylcyclopent-1-en-1-yl)carbonyl]piperidin-3-yl}oxy)pyridine-4-carbonitrile], in that order: 4 nM and 59 nM.
With `COc1cc(-n2nccn2)c(C(=O)N2C[C@H](Oc3nccc(C#N)c3C)CC[C@H]2C)cn1` [Example 85, 2-{[(3R,6R)-1-{[6-methoxy-4-(2H-1,2,3-triazol-2-yl)pyridin-3-yl]carbonyl}-6-methylpiperidin-3-yl]oxy}-3-methylpyridine-4-carbonitrile], the Ki in experiment [1] was determined as 43.2 nM.
`Cc1c(C#N)ccnc1O[C@@H]1CC[C@@H](C)N(C(=O)c2ccc(Cl)cc2-n2nccn2)C1` [Example 4, 2-{[(3R,6R)-1-{[4-chloro-2-(2H-1,2,3-triazol-2-yl)phenyl]carbonyl}-6-methylpiperidin-3-yl]oxy}-3-methylpyridine-4-carbonitrile]: the Ki in experiment [1] was 0.4 nM. Besides, the IC50 in experiment [2] is 12 nM.
For `Cc1c(C#N)ccnc1O[C@@H]1CC[C@@H](C)N(C(=O)c2nscc2-c2ccccc2)C1` [Example 50], in that order: 2 nM and 22 nM.
Regarding `COc1ccc(C(=O)N2C[C@H](Oc3nccc(C#N)c3C)CC[C@H]2C)c(C2CCC2)n1` [Example 66], the Ki in experiment [1] is 1.4 nM. Also, the IC50 in experiment [2] is 77 nM.
